From ChEMBL document CHEMBL1157938, “Cytotoxicity and inhibition of DNA topoisomerase I of polyhydroxylated triterpenoids and triterpenoid glycosides” (Bioorg Med Chem Lett, 2010)
Calls of active or inactive are those of the source. The calls are words filed in the database; no cut-off is given here.

Tests used:
A549 [1] = experiment: Cytotoxicity against human A549 cells after 48 hrs by WST8 assay; format: functional; settings: A549, 48 h
[2] = target: DNA topoisomerase 2-alpha (Homo sapiens, UniProt P11388); experiment: Inhibition of human DNA topoisomerase 2-mediated relaxation of supercoiled DNA by gel electrophoresis
DNA topoisomerase 2-alpha, sequence (P11388 whole entry): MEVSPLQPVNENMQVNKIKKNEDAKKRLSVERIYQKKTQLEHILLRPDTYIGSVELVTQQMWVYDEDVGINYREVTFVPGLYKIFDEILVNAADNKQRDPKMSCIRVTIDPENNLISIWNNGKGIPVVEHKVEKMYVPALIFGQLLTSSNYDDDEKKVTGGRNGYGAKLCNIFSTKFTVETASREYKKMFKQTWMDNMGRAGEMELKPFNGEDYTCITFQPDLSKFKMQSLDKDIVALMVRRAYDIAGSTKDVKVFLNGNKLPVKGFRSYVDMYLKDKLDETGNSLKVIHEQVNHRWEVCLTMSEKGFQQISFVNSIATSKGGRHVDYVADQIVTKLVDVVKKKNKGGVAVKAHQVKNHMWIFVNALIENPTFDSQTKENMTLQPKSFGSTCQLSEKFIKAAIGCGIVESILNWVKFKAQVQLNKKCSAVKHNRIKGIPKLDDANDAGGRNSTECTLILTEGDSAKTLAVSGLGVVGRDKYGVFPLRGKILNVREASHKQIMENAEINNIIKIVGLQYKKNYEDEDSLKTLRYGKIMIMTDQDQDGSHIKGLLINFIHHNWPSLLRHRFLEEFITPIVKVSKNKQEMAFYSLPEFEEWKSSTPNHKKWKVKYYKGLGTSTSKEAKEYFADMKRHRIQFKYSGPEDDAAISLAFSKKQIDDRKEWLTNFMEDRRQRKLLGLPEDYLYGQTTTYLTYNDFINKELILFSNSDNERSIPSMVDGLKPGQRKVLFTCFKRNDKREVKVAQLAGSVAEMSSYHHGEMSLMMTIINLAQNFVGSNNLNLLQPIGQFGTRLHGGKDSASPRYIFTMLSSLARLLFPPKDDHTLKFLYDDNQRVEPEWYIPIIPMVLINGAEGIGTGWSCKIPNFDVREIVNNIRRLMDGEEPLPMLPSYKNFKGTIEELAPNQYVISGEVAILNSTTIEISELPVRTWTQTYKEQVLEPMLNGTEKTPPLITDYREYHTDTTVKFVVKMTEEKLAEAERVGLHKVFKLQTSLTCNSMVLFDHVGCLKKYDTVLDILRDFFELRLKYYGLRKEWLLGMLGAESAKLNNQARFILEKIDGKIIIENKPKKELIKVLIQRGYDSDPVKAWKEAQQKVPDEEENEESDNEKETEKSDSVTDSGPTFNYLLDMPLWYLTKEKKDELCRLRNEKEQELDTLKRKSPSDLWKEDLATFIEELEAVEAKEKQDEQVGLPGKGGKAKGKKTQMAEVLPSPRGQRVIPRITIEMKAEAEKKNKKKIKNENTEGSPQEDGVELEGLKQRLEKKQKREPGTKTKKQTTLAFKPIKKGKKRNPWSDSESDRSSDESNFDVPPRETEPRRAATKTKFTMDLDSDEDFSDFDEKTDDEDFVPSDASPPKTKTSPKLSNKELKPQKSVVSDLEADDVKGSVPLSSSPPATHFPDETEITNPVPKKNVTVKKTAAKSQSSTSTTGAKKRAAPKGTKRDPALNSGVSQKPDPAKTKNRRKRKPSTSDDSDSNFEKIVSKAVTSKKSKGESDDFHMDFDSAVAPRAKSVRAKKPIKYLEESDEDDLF

PC-3 [3] = experiment: Cytotoxicity against human PC3 cells after 48 hrs by WST8 assay; format: functional; settings: PC-3, 48 h
PANC-1 [4] = experiment: Cytotoxicity against human PANC1 cells after 48 hrs by WST8 assay; format: functional; settings: PANC-1, 48 h
[5] = target: T1, DNA topoisomerase 1 (Homo sapiens) (UniProt P11387); experiment: Inhibition of human DNA topoisomerase 1-mediated relaxation of supercoiled DNA at 63 to 125 uM
T1 sequence (whole entry): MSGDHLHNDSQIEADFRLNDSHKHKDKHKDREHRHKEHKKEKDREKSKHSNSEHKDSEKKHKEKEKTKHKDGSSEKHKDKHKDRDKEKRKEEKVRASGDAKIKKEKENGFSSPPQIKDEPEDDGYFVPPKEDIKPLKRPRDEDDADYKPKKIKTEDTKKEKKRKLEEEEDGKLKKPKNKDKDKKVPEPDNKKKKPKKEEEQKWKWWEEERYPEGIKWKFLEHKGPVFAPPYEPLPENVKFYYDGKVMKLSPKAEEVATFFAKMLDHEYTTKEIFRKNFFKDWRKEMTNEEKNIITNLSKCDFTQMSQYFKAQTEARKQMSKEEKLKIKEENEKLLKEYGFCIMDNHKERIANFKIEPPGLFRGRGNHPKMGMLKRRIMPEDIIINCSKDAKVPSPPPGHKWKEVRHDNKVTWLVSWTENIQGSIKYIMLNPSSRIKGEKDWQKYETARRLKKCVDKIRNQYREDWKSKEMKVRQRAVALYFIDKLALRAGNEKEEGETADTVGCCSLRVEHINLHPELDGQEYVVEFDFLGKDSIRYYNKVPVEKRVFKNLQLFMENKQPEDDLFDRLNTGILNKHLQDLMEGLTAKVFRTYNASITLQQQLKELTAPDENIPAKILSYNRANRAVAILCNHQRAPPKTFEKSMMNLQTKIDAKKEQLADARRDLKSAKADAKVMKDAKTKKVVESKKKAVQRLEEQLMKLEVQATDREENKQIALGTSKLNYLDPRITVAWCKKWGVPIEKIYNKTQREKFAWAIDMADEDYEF

HL-60 [6] = experiment: Cytotoxicity against human HL60 cells after 48 hrs by WST8 assay; format: functional; settings: HL-60, 48 h
[7] = target: T1, DNA topoisomerase 1 (Homo sapiens); experiment: Inhibition of human DNA topoisomerase 1 assessed as intercalate into DNA at 312 uM
DNA topoisomerase 1 [8] = target: T2, DNA topoisomerase 1 (Homo sapiens, UniProt P11387); experiment: Inhibition of human DNA topoisomerase 1-mediated relaxation of supercoiled DNA by gel electrophoresis
T2 sequence (P11387 whole entry): T1 sequence (whole entry)

[9] = Cytotoxicity against human MRC5 cells after 48 hrs by WST8 assay; format: cell-based
[10] = target: T1, DNA topoisomerase 1 (Homo sapiens); experiment: Inhibition of human DNA topoisomerase 1 assessed as stabilize DNA-enzyme covalent complex
[11] = target: T1, DNA topoisomerase 1 (Homo sapiens); experiment: Inhibition of human DNA topoisomerase 1 assessed as prevention of DNA-enzyme complex formation
DNA topoisomerase 1 [12] = target: T2, DNA topoisomerase 1; experiment: Inhibition of human DNA topoisomerase 1 at free enzyme state
PANC-1 [13] = experiment: Cytotoxicity against human PANC1 cells at 25 uM after 48 hrs by WST8 assay; format: functional, cell-based
[14] = target: T1, DNA topoisomerase 1 (Homo sapiens); experiment: Inhibition of human DNA topoisomerase 1-mediated relaxation of supercoiled DNA at 312 uM
MRC5 = experiment: Cytotoxicity against human MRC5 cells at 25 uM after 48 hrs by WST8 assay; format: cell-based; settings: mrc5, 48 h
PC-3 [15] = experiment: Cytotoxicity against human PC3 cells at 25 uM after 48 hrs by WST8 assay; format: functional, cell-based
A549 [16] = experiment: Cytotoxicity against human A549 cells at 25 uM after 48 hrs by WST8 assay; format: functional, cell-based
HL-60 [17] = experiment: Cytotoxicity against human HL60 cells at 25 uM after 48 hrs by WST8 assay; format: functional, cell-based
[18] = target: T1, DNA topoisomerase 1 (Homo sapiens); experiment: Inhibition of human DNA topoisomerase 1-mediated relaxation of supercoiled DNA at 450 uM

SMILES | GI50 (A549 [1]) [µM] | IC50 [2] [µM] | GI50 (PC-3 [3]) [µM] | GI50 (PANC-1 [4]) [µM] | inhibition [5] | GI50 (HL-60 [6]) [µM] | Activity [7] | IC50 (DNA topoisomerase 1 [8]) [µM] | GI50 at 48 h [9] [µM] | inhibition [10] | inhibition [11] | IC50 (DNA topoisomerase 1 [12]) [µM] | growth inhibition (GI) (PANC-1 [13]) | inhibition [14] | growth inhibition (GI) (MRC5) | growth inhibition (GI) (PC-3 [15]) | growth inhibition (GI) (A549 [16]) | growth inhibition (GI) (HL-60 [17]) | inhibition [18]
C/C=C(/C)C(=O)O[C@H]1[C@H](OC(=O)/C(C)=C/C)C(C)(C)C[C@H]2C3=CC[C@@H]4[C@@]5(C)CC[C@H](O[C@@H]6O[C@H](C(=O)O)[C@@H](O)[C@H](O[C@@H]7O[C@@H](CO)[C@H](O)[C@H]7O)[C@H]6O[C@@H]6O[C@H](CO)[C@@H](O)[C@H](O)[C@H]6O)[C@](C)(CO)[C@@H]5CC[C@@]4(C)[C@]3(C)[C@@H](O)[C@@H](O)[C@]21CO [AESCULIOSIDE IIIE] | 21.3 | > 250 | 12.8 | 21.4 | Active | 14 | Active | 45.1 | 21.5 |  |  |  |  |  |  |  |  |  | 
C/C=C(/C)C(=O)O[C@H]1[C@H](OC(=O)/C(C)=C\C)[C@]2(CO)[C@H](O)C[C@]3(C)C(=CC[C@@H]4[C@@]5(C)CC[C@H](O[C@@H]6O[C@H](C(=O)O)[C@@H](O)[C@H](O[C@@H]7O[C@@H](CO)[C@H](O)[C@H]7O)[C@H]6O[C@@H]6O[C@H](CO)[C@@H](O)[C@H](O)[C@H]6O)[C@](C)(CO)[C@@H]5CC[C@]43C)[C@@H]2CC1(C)C | 6.36 | > 250 | 1.6 | 11.1 | Active | 1.94 |  | 53 | 5.5 | inactive | Active | 23.8 |  |  |  |  |  |  | 
C/C=C(/C)C(=O)O[C@H]1[C@H](OC(=O)/C(C)=C\C)[C@]2(CO)[C@H](O)[C@H](O)[C@]3(C)C(=CC[C@@H]4[C@@]5(C)CC[C@H](O[C@@H]6O[C@H](C(=O)O)[C@@H](O)[C@H](O[C@@H]7O[C@@H](CO)[C@H](O)[C@H]7O)[C@H]6O[C@@H]6O[C@H](CO)[C@H](O)[C@H](O)[C@H]6O)C(C)(C)[C@@H]5CC[C@]43C)[C@@H]2CC1(C)C | 4.58 | > 250 | 14.3 | 21.5 | Active | 16.9 |  | 32.7 | 5.26 | inactive | Active | 23.8 |  |  |  |  |  |  | 
C/C=C(/C)C(=O)O[C@H]1[C@H](O)[C@]2(CO)[C@H](O)[C@H](O)[C@]3(C)C(=CC[C@@H]4[C@@]5(C)CC[C@H](O[C@@H]6O[C@H](C(=O)O)[C@@H](O)[C@H](O[C@@H]7OC[C@@H](O)[C@H](O)[C@H]7O)[C@H]6O[C@@H]6O[C@H](CO)[C@@H](O)[C@H](O)[C@H]6O)C(C)(C)[C@@H]5CC[C@]43C)[C@@H]2CC1(C)C [ERYNGIOSIDE 94A] | 7.34 | > 250 | 7.99 |  |  | 9.38 |  | > 250 | 8.51 |  |  |  | inactive | inactive |  |  |  |  | 
C/C=C(\C)C(=O)O[C@H]1[C@H](OC(=O)/C(C)=C/C)[C@]2(CO)[C@H](O)[C@H](O)[C@]3(C)C(=CC[C@@H]4[C@@]5(C)CC[C@H](O[C@@H]6O[C@H](C(=O)O)[C@@H](O)[C@H](O[C@@H]7O[C@@H](CO)[C@H](O)[C@H]7O)[C@H]6O[C@@H]6O[C@H](CO)[C@@H](O)[C@H](O)[C@H]6O)[C@](C)(CO)[C@@H]5CC[C@]43C)[C@@H]2CC1(C)C [AESCULIOSIDE IIID] | 23.7 | > 250 | 14.6 | 21.7 | Active | 15.2 | Active | 48.6 | 9.01 |  |  |  |  |  |  |  |  |  | 
C/C=C(/C)C(=O)O[C@H]1[C@H](O)[C@]2(CO)[C@H](O)C[C@]3(C)C(=CC[C@@H]4[C@@]5(C)CC[C@H](O[C@@H]6O[C@H](C(=O)O)[C@@H](O)[C@H](O[C@@H]7O[C@@H](CO)[C@H](O)[C@H]7O)[C@H]6O[C@@H]6O[C@H](CO)[C@@H](O)[C@H](O)[C@H]6O)[C@](C)(CO)[C@@H]5CC[C@]43C)[C@@H]2CC1(C)C [AESCULIOSIDE IIB] |  |  |  |  |  |  | Active |  |  |  |  |  | inactive | inactive | Not Active | inactive | inactive | inactive | 
C/C=C(/C)C(=O)O[C@H]1[C@H](OC(=O)/C(C)=C\C)[C@]2(CO)[C@H](O)C[C@]3(C)C(=CC[C@@H]4[C@@]5(C)CC[C@H](O)C(C)(C)[C@@H]5CC[C@]43C)[C@@H]2CC1(C)C | 5.48 | > 250 | 6.84 | 11.2 |  | 5.46 |  | > 250 | 7.18 |  |  |  |  |  |  |  |  |  | inactive
C/C=C(/C)C(=O)O[C@H]1[C@H](OC(=O)C(C)CC)[C@]2(CO)[C@H](O)C[C@]3(C)C(=CC[C@@H]4[C@@]5(C)CC[C@H](O[C@@H]6O[C@H](C(=O)O)[C@@H](O)[C@H](O[C@@H]7O[C@@H](CO)[C@H](O)[C@H]7O)[C@H]6O[C@@H]6O[C@H](CO)[C@H](O)[C@H](O)[C@H]6O)C(C)(C)[C@@H]5CC[C@]43C)[C@@H]2CC1(C)C (stereo not given in full) [AESCULIOSIDE IVC] | 10.2 | > 250 | 7.7 | 15.6 | Active | 8.02 |  | 49.7 | 4.34 | inactive | Active | 23.8 |  |  |  |  |  |  | 
C/C=C(/C)C(=O)O[C@H]1[C@H](OC(=O)C(C)CC)[C@]2(CO)[C@H](O)[C@H](O)[C@]3(C)C(=CC[C@@H]4[C@@]5(C)CC[C@H](O[C@@H]6O[C@H](C(=O)O)[C@@H](O)[C@H](O[C@@H]7O[C@@H](CO)[C@H](O)[C@H]7O)[C@H]6O[C@@H]6O[C@H](CO)[C@H](O)[C@H](O)[C@H]6O)C(C)(C)[C@@H]5CC[C@]43C)[C@@H]2CC1(C)C (stereo not given in full) [AESCULIOSIDE IVA] | 9.91 | > 250 | 9.22 | 17.6 | Active | 7.26 |  | 51.8 | 4.78 | inactive | Active | 23.8 |  |  |  |  |  |  | 
